5 compounds from ChEMBL document CHEMBL1135158, “Pyrrolo[2,3-d]pyrimidines containing diverse N-7 substituents as potent inhibitors of Lck” (Bioorg Med Chem Lett, 2002) can be followed below.

For data set [1], the target named is T1, Tyrosine-protein kinase CSK (Homo sapiens, UniProt P41240). Nature of the data set: Inhibition of human Csk tyrosine kinase.
The target of data set [2] is T2, Angiopoietin-1 receptor (Homo sapiens, UniProt Q02763). The experiment in a line: Inhibition of TIE-2 kinase.
The target of data set [3] is Tyrosine-protein kinase Lyn (Homo sapiens, UniProt P07948). Nature of the data set: Inhibition of human p56 Lyn tyrosine kinase.
Data set [4] concerns the target Tyrosine-protein kinase Lck (Homo sapiens, UniProt P06239). The experiment in a line: Inhibition of human p56 Lck tyrosine kinase (lck64-509).
For data set [5], the target named is Tyrosine-protein kinase Fyn (Homo sapiens, UniProt P06241). The experiment in a line: Inhibition of human p55 Fyn tyrosine kinase.
Data set [6] deals with Tyrosine-protein kinase Blk (Homo sapiens, UniProt P51451). Nature of the data set: Inhibition of human B lymphoid tyrosine kinase.
For data set [7], the target named is Proto-oncogene tyrosine-protein kinase Src (Homo sapiens, UniProt P12931).
Description: Inhibition of Src protein tyrosine kinase
A short description of data set [8]: Compound was evaluated for the pharmacokinetic parameter, maximum time constant. The conditions noted are these: mouse, in vivo. It is filed as ADME, organism-based.
Data set [9] is described as follows: Compound was evaluated for the pharmacokinetic parameter, Terminal half life period. Format: ADME, organism-based. The settings on record: mouse, in vivo.
Data set [10] can be described thus: Compound was evaluated for the pharmacokinetic parameter, area under curve. The conditions noted are these: mouse, in vivo. It is filed as ADME, organism-based.
Data set [11] is described as follows: Compound was evaluated for the pharmacokinetic parameter, maximum plasma concentration. Format: ADME, organism-based. The conditions noted are these: mouse.
Data set [12] concerns Mus musculus. Nature of the data set: Compound was evaluated for inhibition of interleukin - 2 (IL-2) production in anti -CD3 mAb stimulation in mice after intraperitoneal administration. Format: functional. The conditions noted are these: ip.
In data set [13] the test system is Mus musculus. Nature of the data set: Compound was evaluated for inhibition of interleukin - 2 (IL-2) production in anti -CD3 mAb stimulation in mice after oral administration. It is filed as functional.
Data set [14] addresses Vascular endothelial growth factor receptor 2 (Homo sapiens, UniProt P35968). The experiment in a line: Inhibition of Vascular endothelial growth factor receptor 2.
Data set [15] deals with T2, Angiopoietin-1 receptor. Nature of the data set: Inhibition of TIE-2 kinase.
For data set [16], the system named is Mus musculus. Nature of the data set: Compound was evaluated for the inhibition of TCR stimulated (anti-CD3 mAb) IL-2 production in mice following oral administration. It is filed as functional.
Data set [17] addresses T2, Angiopoietin-1 receptor.
A short description of data set [18]: Half life period was determined after intravenous administration at a dose 5 mg/kg to male Sprague-Dawley rats. Format: ADME, organism-based. Set-up: dose 5 mg/kg, route intravenous. The settings on record: rat, in vivo.
A short description of data set [19]: Maximum time constant was determined after oral administration at a dose 10 mg/kg to male Sprague-Dawley rats. It is filed as ADME, organism-based. The settings on record: rat, in vivo. Set-up: dose 10 mg/kg, route oral.
The nature of data set [20]: Clearance was determined after intravenous administration at a dose 5 mg/kg to male Sprague-Dawley rats. Set-up: dose 5 mg/kg, route intravenous. The settings on record: rat, in vivo. It is filed as ADME, organism-based.
Data set [21] can be described thus: Bioavailability was determined after intravenous administration at a dose 5 mg/kg to male Sprague-Dawley rats. Format: ADME, organism-based. The conditions noted are these: rat, in vivo.
Data set [22] is described as follows: Volume of distribution was determined after intravenous administration at a dose 5 mg/kg to male Sprague-Dawley rats. Format: ADME, organism-based. Set-up: dose 5 mg/kg, route intravenous. The conditions noted are these: rat, in vivo, read-out: Vz.
Data set [23] can be described thus: Area under curve was determined after oral administration at a dose 10 mg/kg to male Sprague-Dawley rats. Format: ADME, organism-based. The settings on record: rat, in vivo. Also on record: dose 10 mg/kg, route oral.
Data set [24] is filed under the species Homo sapiens. Nature of the data set: Inhibition of IL-2 production in whole blood assay. Format: functional.
In data set [25] the test system is Jurkat. The experiment in a line: Inhibition of IL-2 production in anti-CD3 stimulated Jurkat cells. It is filed as functional, cell-based. The conditions noted are these: Homo sapiens.
Data set [26] relates to Mus musculus. The experiment in a line: Effective dose was evaluated in vivo for the inhibition of IFN-gamma production for 3 days peroral administration of the compound. It is filed as functional. The settings on record: po, 72 h.
Data set [27] deals with Platelet-derived growth factor receptor (Homo sapiens, UniProt P09619+P16234). The experiment in a line: Inhibition of Platelet-derived growth factor receptor (Inactive at 1 mM ATP). Format: protein-complex assay.
In data set [28] the target is T1, Tyrosine-protein kinase CSK. Nature of the data set: Inhibition of human Tyrosine-protein kinase CSK.
Data set [29] is described as follows: Maximum plasma concentration was determined after oral administration at a dose 10 mg/kg to male Sprague-Dawley rats. Format: ADME, organism-based. The settings on record: rat. Set-up: dose 10 mg/kg, route oral.

Each structure is given as a SMILES string. Bounds are passed on as bounds.

Chain of Proto-oncogene tyrosine-protein kinase Src (P12931 2-536 limits assumed): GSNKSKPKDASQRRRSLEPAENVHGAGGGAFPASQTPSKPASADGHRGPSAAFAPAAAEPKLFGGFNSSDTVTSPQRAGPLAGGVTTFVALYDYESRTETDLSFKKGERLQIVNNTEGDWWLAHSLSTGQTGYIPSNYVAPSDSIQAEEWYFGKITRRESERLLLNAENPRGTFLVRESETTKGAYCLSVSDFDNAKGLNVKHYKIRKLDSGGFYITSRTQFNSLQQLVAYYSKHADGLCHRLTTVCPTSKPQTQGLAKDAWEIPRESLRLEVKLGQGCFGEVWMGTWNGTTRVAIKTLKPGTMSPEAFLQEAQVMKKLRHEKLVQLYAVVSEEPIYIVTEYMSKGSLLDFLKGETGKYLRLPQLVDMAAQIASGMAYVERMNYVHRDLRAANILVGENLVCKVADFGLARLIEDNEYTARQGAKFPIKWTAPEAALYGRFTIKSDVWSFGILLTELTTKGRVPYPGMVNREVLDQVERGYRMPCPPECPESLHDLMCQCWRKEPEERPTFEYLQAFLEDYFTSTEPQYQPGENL
Chain of Tyrosine-protein kinase Lck (P06239 whole entry): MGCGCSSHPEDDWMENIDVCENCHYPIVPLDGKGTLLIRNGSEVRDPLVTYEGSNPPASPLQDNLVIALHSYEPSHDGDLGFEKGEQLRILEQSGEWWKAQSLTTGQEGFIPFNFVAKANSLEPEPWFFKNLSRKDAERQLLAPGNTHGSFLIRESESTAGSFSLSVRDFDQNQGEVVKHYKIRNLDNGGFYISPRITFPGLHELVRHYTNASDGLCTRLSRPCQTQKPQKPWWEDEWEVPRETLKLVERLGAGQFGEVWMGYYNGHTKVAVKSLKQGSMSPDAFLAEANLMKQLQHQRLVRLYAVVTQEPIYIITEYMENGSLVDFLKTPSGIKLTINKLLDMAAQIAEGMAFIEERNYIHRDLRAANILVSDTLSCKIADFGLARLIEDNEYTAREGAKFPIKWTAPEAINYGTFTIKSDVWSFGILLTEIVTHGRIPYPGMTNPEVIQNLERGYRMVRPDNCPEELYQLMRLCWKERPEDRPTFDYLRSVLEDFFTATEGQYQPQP
T2 sequence (Q02763 whole entry): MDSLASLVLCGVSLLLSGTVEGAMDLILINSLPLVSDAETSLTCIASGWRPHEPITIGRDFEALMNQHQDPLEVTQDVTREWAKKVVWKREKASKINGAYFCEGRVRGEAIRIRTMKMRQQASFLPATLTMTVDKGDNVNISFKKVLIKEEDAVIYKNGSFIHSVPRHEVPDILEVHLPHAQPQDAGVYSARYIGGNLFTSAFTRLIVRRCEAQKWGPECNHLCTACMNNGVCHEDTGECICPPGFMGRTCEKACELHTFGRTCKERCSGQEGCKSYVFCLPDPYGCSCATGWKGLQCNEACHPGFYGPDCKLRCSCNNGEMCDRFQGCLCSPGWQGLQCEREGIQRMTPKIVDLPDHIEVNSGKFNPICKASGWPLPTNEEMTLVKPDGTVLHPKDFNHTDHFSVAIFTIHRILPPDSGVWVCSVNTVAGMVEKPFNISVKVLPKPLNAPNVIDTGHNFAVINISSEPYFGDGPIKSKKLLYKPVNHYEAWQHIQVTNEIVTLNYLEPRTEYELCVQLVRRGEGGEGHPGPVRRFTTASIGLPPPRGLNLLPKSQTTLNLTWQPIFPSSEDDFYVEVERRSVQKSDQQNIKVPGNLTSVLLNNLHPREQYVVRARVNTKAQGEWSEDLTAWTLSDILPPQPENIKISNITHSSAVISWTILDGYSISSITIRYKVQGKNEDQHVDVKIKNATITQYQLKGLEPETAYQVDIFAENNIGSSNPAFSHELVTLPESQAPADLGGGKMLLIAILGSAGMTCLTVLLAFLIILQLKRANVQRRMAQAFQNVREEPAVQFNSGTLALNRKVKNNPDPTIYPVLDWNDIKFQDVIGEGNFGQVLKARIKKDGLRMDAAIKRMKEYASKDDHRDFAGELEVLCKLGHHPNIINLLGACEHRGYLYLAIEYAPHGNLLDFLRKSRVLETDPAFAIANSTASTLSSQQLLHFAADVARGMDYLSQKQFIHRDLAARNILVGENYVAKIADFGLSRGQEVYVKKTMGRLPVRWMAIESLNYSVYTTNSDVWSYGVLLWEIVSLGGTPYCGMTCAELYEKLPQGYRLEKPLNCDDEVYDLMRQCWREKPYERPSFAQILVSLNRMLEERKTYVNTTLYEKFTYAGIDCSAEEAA
Chain of Tyrosine-protein kinase Lyn (P07948 whole entry): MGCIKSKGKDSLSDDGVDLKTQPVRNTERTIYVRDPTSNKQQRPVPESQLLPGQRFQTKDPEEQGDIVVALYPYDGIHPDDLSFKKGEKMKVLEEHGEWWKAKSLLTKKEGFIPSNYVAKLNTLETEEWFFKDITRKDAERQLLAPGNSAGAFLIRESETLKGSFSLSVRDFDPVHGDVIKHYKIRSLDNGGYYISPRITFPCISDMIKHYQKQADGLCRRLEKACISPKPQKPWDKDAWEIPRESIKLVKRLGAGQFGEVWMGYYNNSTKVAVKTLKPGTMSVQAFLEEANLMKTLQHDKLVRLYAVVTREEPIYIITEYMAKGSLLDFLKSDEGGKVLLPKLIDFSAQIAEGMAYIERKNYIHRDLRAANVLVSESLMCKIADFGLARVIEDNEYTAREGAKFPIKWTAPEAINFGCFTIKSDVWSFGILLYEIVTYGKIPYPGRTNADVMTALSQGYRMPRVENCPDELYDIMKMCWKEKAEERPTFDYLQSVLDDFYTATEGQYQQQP
T1 sequence (P41240 whole entry): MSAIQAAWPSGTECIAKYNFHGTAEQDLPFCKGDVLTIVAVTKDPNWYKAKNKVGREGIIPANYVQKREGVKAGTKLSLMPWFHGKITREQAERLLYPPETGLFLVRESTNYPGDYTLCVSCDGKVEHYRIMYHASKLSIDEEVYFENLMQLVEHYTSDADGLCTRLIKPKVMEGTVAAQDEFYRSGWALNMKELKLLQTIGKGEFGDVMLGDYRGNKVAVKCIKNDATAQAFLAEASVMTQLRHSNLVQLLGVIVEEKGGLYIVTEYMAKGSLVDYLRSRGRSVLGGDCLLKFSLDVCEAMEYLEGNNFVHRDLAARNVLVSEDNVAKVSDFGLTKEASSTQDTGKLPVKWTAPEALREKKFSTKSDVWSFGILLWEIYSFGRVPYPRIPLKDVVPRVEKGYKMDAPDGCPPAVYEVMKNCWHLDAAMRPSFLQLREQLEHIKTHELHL
Chain of Tyrosine-protein kinase Blk (P51451 whole entry): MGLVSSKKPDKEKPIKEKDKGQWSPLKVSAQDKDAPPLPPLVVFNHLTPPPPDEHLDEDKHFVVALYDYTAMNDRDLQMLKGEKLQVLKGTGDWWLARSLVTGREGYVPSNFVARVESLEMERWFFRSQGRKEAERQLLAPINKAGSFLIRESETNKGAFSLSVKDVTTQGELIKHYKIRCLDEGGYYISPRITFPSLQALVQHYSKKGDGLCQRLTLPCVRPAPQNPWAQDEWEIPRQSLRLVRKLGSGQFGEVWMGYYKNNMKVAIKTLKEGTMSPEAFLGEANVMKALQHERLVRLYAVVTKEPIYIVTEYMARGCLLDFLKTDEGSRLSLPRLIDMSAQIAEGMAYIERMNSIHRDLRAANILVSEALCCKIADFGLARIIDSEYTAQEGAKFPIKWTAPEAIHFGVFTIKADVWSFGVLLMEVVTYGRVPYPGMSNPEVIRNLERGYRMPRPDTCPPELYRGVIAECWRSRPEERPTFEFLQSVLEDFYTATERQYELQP
Chain of Tyrosine-protein kinase Fyn (P06241 whole entry): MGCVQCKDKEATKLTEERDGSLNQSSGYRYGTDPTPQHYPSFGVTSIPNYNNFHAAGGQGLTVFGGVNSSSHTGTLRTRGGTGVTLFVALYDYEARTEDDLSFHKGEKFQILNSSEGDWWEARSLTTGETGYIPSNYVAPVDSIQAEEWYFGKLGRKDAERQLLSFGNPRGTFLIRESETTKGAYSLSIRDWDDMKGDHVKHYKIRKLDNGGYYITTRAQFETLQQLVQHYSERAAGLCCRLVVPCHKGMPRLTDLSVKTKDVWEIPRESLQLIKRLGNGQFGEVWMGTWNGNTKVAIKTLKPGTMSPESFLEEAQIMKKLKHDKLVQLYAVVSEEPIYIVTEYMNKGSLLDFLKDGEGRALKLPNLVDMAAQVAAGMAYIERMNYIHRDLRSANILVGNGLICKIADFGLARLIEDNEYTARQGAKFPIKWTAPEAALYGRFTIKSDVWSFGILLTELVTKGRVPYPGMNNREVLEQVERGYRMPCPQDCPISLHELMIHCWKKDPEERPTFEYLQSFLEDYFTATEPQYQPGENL

`CN1CCN([C@H]2CC[C@H](n3cc(-c4ccc(Oc5ccccc5)cc4)c4c(N)ncnc43)CC2)CC1`: the half-maximal inhibitory concentration (IC50) in [1] stood at 4270 nM; in [2] it was 5850 nM; in data set [3] it was 430 nM; in [4], 240 nM; in data set [5], 2030 nM; in data set [6], 370 nM. The compound further returned a concentration for half-maximal inhibition (IC50) in data set [7] of 1190 nM.

Regarding `Nc1ncnc2c1c(-c1ccc(Oc3ccccc3)cc1)cn2C1CCCC1`, the Tmax in [8] is 0.25 h. The half-life in [9] is 7.7 h. The compound also yielded an exposure (AUC) in data set [10] of 34.3 ng·h/mL. For the same compound, in [11], the peak level (Cmax) was 28 nM. Moreover, the 50% effective dose (ED50) in data set [12] amounted to 4 mg/kg; in data set [13] it was 25 mg/kg. The 50% inhibitory concentration (IC50) stood at 4440 nM in data set [14], 100 nM in data set [4], 9070 nM in [15] and 560 nM in data set [7].

For `CN1CCN([C@H]2CC[C@@H](n3cc(-c4ccc(Oc5ccccc5)cc4)c4c(N)ncnc43)CC2)CC1.O=C(O)/C=C\C(=O)O`, in data set [16], the 50% effect level (ED50) was put at a dose of 2.5 mg/kg.

`NCCn1cc(-c2ccc(Oc3ccccc3)cc2)c2c(N)ncnc21` registered a half-inhibitory concentration (IC50) in data set [17] of over 50000 nM.

In data set [18], `CN1CCN([C@H]2CC[C@@H](n3cc(-c4ccc(Oc5ccccc5)cc4)c4c(N)ncnc43)CC2)CC1` showed a half-life of 14.3 h. Further, in [19], the Tmax worked out at 4 h. This compound had a clearance in [20] of 88.3 mL/min/kg. In data set [21], this compound came in with a bioavailability of 54%. Also, the Vd in data set [22] stood at 140 L/kg. The AUC in [23] was found to be 661 ng·h/mL. Moreover, the half-inhibitory concentration (IC50) in data set [24] was 70 nM; in data set [25], 25 nM; in data set [27], over 20000 nM; in data set [28] it was 41 nM; in data set [3], 29 nM; in data set [4], 15 nM. Moreover, the IC50 in [5] amounted to 59 nM; in data set [6], 46 nM; in data set [7] it was 42 nM; in [17], 250 nM. In addition, in data set [26], the 50% effect level (ED50) was put at a dose of 2.2 mg/kg. This compound also returned a peak concentration (Cmax) in data set [29] of 113 nM.
